Results: paper PMC11007962, “First-in-human study of GFH018, a small molecule inhibitor of transforming growth factor-β receptor I inhibitor, in patients with advanced solid tumors” (BMC Cancer, 2024)
Read-outs that look alike come from different tables or passages of the source.

Test system: patients with advanced solid tumors
[1] = 30 mg BID 14d-on/14d-off (N = 7)
[2] = 40 mg BID 14d-on/14d-off (N = 4)
[3] = 50 mg BID 14d-on/14d-off (N = 4)
[4] = 65 mg BID 14d-on/14d-off (N = 6)

SMILES: Cc1cccc(-c2nn3c(c2-c2ccc4ncnn4c2/C=C/C(N)=O)CCC3)n1 [GFH018]
- TEAE: Urine protein present [1]: 0 n (%)
- TEAE: White blood cell count decreased [1]: 0 n (%)
- TEAE: White blood cells urine positive [1]: 0 n (%)
- TRAE: ALP increased [1]: 0 n (%)
- TRAE: ALT increased [1]: 2 (28.6%) n (%)
- TRAE: AST increased [1]: 2 (28.6%) n (%)
- TRAE: Anemia [1]: 0 n (%)
- TRAE: GGT increased [1]: 0 n (%)
- TRAE: LDH increased [1]: 1 (14.3%) n (%)
- TRAE: Lymphocyte count decreased [1]: 1 (14.3%) n (%)
- TRAE: Protein urine present [1]: 0 n (%)
- TRAE: Proteinuria [1]: 3 (42.9%) n (%)
- Treatment-emergent Proteinuria (grouped PTs), G1 [1]: 3 (42.9) n (%)
- Treatment-emergent Proteinuria (grouped PTs), G2 [1]: 1 (14.3) n (%)
- Treatment-emergent Proteinuria (grouped PTs), G3 [1]: 0 n (%)
- Treatment-emergent Proteinuria (grouped PTs: proteinuria and urine protein present), any grade [1]: 4 (57.1) n (%)
- At least one TEAE [2]: 4 (100%) n (%)
- At least one TRAE [2]: 4 (100%) n (%)
- TEAE: ALP increased [2]: 1 (25.0%) n (%)
- TEAE: ALT increased [2]: 0 n (%)
- TEAE: AST increased [2]: 0 n (%)
- TEAE: Abdominal distention [2]: 0 n (%)
- TEAE: Abdominal pain [2]: 0 n (%)
- TEAE: Anemia [2]: 1 (25.0%) n (%)
- TEAE: Asthenia [2]: 1 (25.0%) n (%)
- TEAE: Bilirubin conjugated increased [2]: 0 n (%)
- TEAE: Blood albumin decreased [2]: 0 n (%)
- TEAE: Blood bilirubin increased [2]: 0 n (%)
- TEAE: C-reactive protein increased [2]: 0 n (%)
- TEAE: Constipation [2]: 0 n (%)
- TEAE: Decreased appetite [2]: 0 n (%)
- TEAE: GGT increased [2]: 0 n (%)
- TEAE: Hypoalbuminemia [2]: 0 n (%)
- TEAE: LDH increased [2]: 1 (25.0%) n (%)
- TEAE: Lymphocyte count decreased [2]: 0 n (%)
- TEAE: Platelet count decreased [2]: 1 (25.0%) n (%)
- TEAE: Proteinuria [2]: 0 n (%)
- TEAE: Sinus tachycardia [2]: 1 (25.0%) n (%)
- TEAE: Urine protein present [2]: 0 n (%)
- TEAE: White blood cell count decreased [2]: 0 n (%)
- TEAE: White blood cells urine positive [2]: 0 n (%)
- TRAE: ALP increased [2]: 1 (25.0%) n (%)
- TRAE: ALT increased [2]: 0 n (%)
- TRAE: AST increased [2]: 0 n (%)
- TRAE: Anemia [2]: 0 n (%)
- TRAE: GGT increased [2]: 0 n (%)
- TRAE: LDH increased [2]: 1 (25.0%) n (%)
- TRAE: Lymphocyte count decreased [2]: 0 n (%)
- TRAE: Protein urine present [2]: 0 n (%)
- TRAE: Proteinuria [2]: 0 n (%)
- Treatment-emergent Proteinuria (grouped PTs), G1 [2]: 0 n (%)
- Treatment-emergent Proteinuria (grouped PTs), G2 [2]: 0 n (%)
- Treatment-emergent Proteinuria (grouped PTs), G3 [2]: 0 n (%)
- Treatment-emergent Proteinuria (grouped PTs: proteinuria and urine protein present), any grade [2]: 0 n (%)
- At least one TEAE [3]: 4 (100%) n (%)
- At least one TRAE [3]: 2 (50.0%) n (%)
- TEAE: ALP increased [3]: 1 (25.0%) n (%)
- TEAE: ALT increased [3]: 1 (25.0%) n (%)
- TEAE: AST increased [3]: 1 (25.0%) n (%)
- TEAE: Abdominal distention [3]: 1 (25.0%) n (%)
- TEAE: Abdominal pain [3]: 0 n (%)
- TEAE: Anemia [3]: 3 (75.0%) n (%)
- TEAE: Asthenia [3]: 0 n (%)
- TEAE: Bilirubin conjugated increased [3]: 0 n (%)
- TEAE: Blood albumin decreased [3]: 0 n (%)
- TEAE: Blood bilirubin increased [3]: 0 n (%)
- TEAE: C-reactive protein increased [3]: 0 n (%)
- TEAE: Constipation [3]: 0 n (%)
- TEAE: Decreased appetite [3]: 1 (25.0%) n (%)
- TEAE: GGT increased [3]: 1 (25.0%) n (%)
- TEAE: Hypoalbuminemia [3]: 0 n (%)
- TEAE: LDH increased [3]: 0 n (%)
- TEAE: Lymphocyte count decreased [3]: 0 n (%)
- TEAE: Platelet count decreased [3]: 0 n (%)
- TEAE: Proteinuria [3]: 0 n (%)
- TEAE: Sinus tachycardia [3]: 1 (25.0%) n (%)
- TEAE: Urine protein present [3]: 1 (25.0%) n (%)
- TEAE: White blood cell count decreased [3]: 0 n (%)
- TEAE: White blood cells urine positive [3]: 0 n (%)
- TRAE: ALP increased [3]: 1 (25.0%) n (%)
- TRAE: ALT increased [3]: 1 (25.0%) n (%)
- TRAE: AST increased [3]: 1 (25.0%) n (%)
- TRAE: Anemia [3]: 0 n (%)
- TRAE: GGT increased [3]: 1 (25.0%) n (%)
- TRAE: LDH increased [3]: 0 n (%)
- TRAE: Lymphocyte count decreased [3]: 0 n (%)
- TRAE: Protein urine present [3]: 1 (25.0%) n (%)
- TRAE: Proteinuria [3]: 0 n (%)
- Treatment-emergent Proteinuria (grouped PTs), G1 [3]: 1 (25.0) n (%)
- Treatment-emergent Proteinuria (grouped PTs), G2 [3]: 0 n (%)
- Treatment-emergent Proteinuria (grouped PTs), G3 [3]: 0 n (%)
- Treatment-emergent Proteinuria (grouped PTs: proteinuria and urine protein present), any grade [3]: 1 (25.0) n (%)
- At least one TEAE [4]: 5 (83.3%) n (%)
- At least one TRAE [4]: 5 (83.3%) n (%)
- TEAE: ALP increased [4]: 0 n (%)
- TEAE: ALT increased [4]: 0 n (%)
- TEAE: AST increased [4]: 2 (33.3%) n (%)
- TEAE: Abdominal distention [4]: 0 n (%)
- TEAE: Abdominal pain [4]: 1 (16.7%) n (%)
- TEAE: Anemia [4]: 3 (50.0%) n (%)
- TEAE: Asthenia [4]: 0 n (%)
- TEAE: Bilirubin conjugated increased [4]: 0 n (%)
- TEAE: Blood albumin decreased [4]: 0 n (%)
- TEAE: Blood bilirubin increased [4]: 1 (16.7%) n (%)
- TEAE: C-reactive protein increased [4]: 0 n (%)
- TEAE: Constipation [4]: 1 (16.7%) n (%)
- TEAE: Decreased appetite [4]: 1 (16.7%) n (%)
- TEAE: GGT increased [4]: 1 (16.7%) n (%)
- TEAE: Hypoalbuminemia [4]: 0 n (%)
- TEAE: LDH increased [4]: 0 n (%)
- TEAE: Lymphocyte count decreased [4]: 0 n (%)
- TEAE: Platelet count decreased [4]: 1 (16.7%) n (%)
- TEAE: Proteinuria [4]: 1 (16.7%) n (%)
- TEAE: Sinus tachycardia [4]: 2 (33.3%) n (%)
- TEAE: Urine protein present [4]: 1 (16.7%) n (%)
- TEAE: White blood cell count decreased [4]: 2 (33.3%) n (%)
- TEAE: White blood cells urine positive [4]: 1 (16.7%) n (%)
- TRAE: ALP increased [4]: 0 n (%)
- TRAE: ALT increased [4]: 0 n (%)
- TRAE: AST increased [4]: 2 (33.3%) n (%)
- TRAE: Anemia [4]: 2 (33.3%) n (%)
- TRAE: GGT increased [4]: 0 n (%)
- TRAE: LDH increased [4]: 0 n (%)
- TRAE: Lymphocyte count decreased [4]: 0 n (%)
- TRAE: Protein urine present [4]: 0 n (%)
- TRAE: Proteinuria [4]: 1 (16.7%) n (%)
- Treatment-emergent Proteinuria (grouped PTs), G1 [4]: 1 (16.7) n (%)
- Treatment-emergent Proteinuria (grouped PTs), G2 [4]: 1 (16.7) n (%)
- Treatment-emergent Proteinuria (grouped PTs), G3 [4]: 0 n (%)
- Treatment-emergent Proteinuria (grouped PTs: proteinuria and urine protein present), any grade [4]: 2 (33.3) n (%)
- safety profile of 7 d-on/7 d-off versus 14 d-on/14 d-off regimen (85 mg BID): not significantly different
- At least one TEAE (85 mg BID 7d-on/7d-off (N = 6)): 5 (83.3%) n (%)
- At least one TEAE (Table S3) (85 mg BID 7d-on/7d-off (N = 6)): 5 (83.3%) n (%)
- At least one TRAE (85 mg BID 7d-on/7d-off (N = 6)): 3 (50.0%) n (%)
- TEAE: ALP increased (85 mg BID 7d-on/7d-off (N = 6)): 1 (16.7%) n (%)
- TEAE: ALT increased (85 mg BID 7d-on/7d-off (N = 6)): 0 n (%)
